Results taken from PubChem BioAssay (NCI).
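Interpolation was linear, between the two tested concentrations surrounding the appropriate level; five concentrations were tested over 48 hours in 96-well plates. TGI denotes the concentration required for complete inhibition of growth.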

Assays:
Experiment in all cases: NCI anticancer screen, dose series, 48 h
A549 NSCLC = test system: A549 NSCLC
NCI/ADR-RES ovarian = test system: NCI/ADR-RES ovarian
U251 CNS = test system: U251 CNS
NCI-H226 lung = test system: NCI-H226 lung
SK-MEL-5 melanoma = test system: SK-MEL-5 melanoma
BT-549 breast = test system: BT-549 breast
CCRF-CEM leukemia = test system: CCRF-CEM leukemia
NCI-H23 lung = test system: NCI-H23 lung
COLO 205 colon = test system: COLO 205 colon
SF-539 CNS = test system: SF-539 CNS
OVCAR-5 ovarian = test system: OVCAR-5 ovarian
SF-295 CNS = test system: SF-295 CNS
SNB-19 CNS = test system: SNB-19 CNS
786-0 renal = test system: 786-0 renal
SK-MEL-28 melanoma = test system: SK-MEL-28 melanoma
HCT-116 colon = test system: HCT-116 colon
T-47D breast = test system: T-47D breast
HL-60(TB) leukemia = test system: HL-60(TB) leukemia
TK-10 renal = test system: TK-10 renal
CAKI-1 renal = test system: CAKI-1 renal
MDA-MB-435 = test system: MDA-MB-435
M14 melanoma = test system: M14 melanoma
HT29 colon = test system: HT29 colon
KM12 colon = test system: KM12 colon
MDA-N = test system: MDA-N
HS 578T breast = test system: HS 578T breast
OVCAR-4 ovarian = test system: OVCAR-4 ovarian
RPMI-8226 leukemia = test system: RPMI-8226 leukemia
PC-3 prostate = test system: PC-3 prostate
IGROV1 ovarian = test system: IGROV1 ovarian
HCC-2998 colon = test system: HCC-2998 colon
SK-OV-3 ovarian = test system: SK-OV-3 ovarian
LOX IMVI melanoma = test system: LOX IMVI melanoma
NCI-H522 lung = test system: NCI-H522 lung
MDA-MB-231 breast = test system: MDA-MB-231 breast
K-562 leukemia = test system: K-562 leukemia
RXF 393 renal = test system: RXF 393 renal
SN12C renal = test system: SN12C renal
ACHN renal = test system: ACHN renal
NCI-H460 lung = test system: NCI-H460 lung
MOLT-4 leukemia = test system: MOLT-4 leukemia
SK-MEL-2 melanoma = test system: SK-MEL-2 melanoma
OVCAR-3 ovarian = test system: OVCAR-3 ovarian
SW-620 colon = test system: SW-620 colon
UACC-257 melanoma = test system: UACC-257 melanoma
UO-31 renal = test system: UO-31 renal
DU-145 prostate = test system: DU-145 prostate
SR leukemia = test system: SR leukemia
SNB-75 CNS = test system: SNB-75 CNS
UACC-62 melanoma = test system: UACC-62 melanoma
A498 renal = test system: A498 renal
OVCAR-8 ovarian = test system: OVCAR-8 ovarian
EKVX NSCLC = test system: EKVX NSCLC
SF-268 CNS = test system: SF-268 CNS
MCF7 breast = test system: MCF7 breast
HCT-15 colon = test system: HCT-15 colon
MALME-3M melanoma = test system: MALME-3M melanoma

`CC(C)c1cc(Cl)nc(Cl)n1` was tested, and the TGI (A549 NSCLC) was over 100 µM, the TGI (NCI/ADR-RES ovarian) was over 100 µM and the TGI (U251 CNS) was over 100 µM. For the same compound, the TGI (NCI-H226 lung) was over 100 µM, the TGI (SK-MEL-5 melanoma) was over 100 µM and the TGI (BT-549 breast) was over 100 µM. It also gave a TGI (CCRF-CEM leukemia) of over 100 µM, a TGI (NCI-H23 lung) of over 100 µM and a TGI (COLO 205 colon) of over 100 µM. It also gave a TGI (SF-539 CNS) of over 100 µM, a TGI (OVCAR-5 ovarian) of over 100 µM and a TGI (SF-295 CNS) of over 100 µM. For the same compound, the TGI (SNB-19 CNS) was over 100 µM, the TGI (786-0 renal) was over 100 µM and the TGI (SK-MEL-28 melanoma) was over 100 µM. It also gave a TGI (HCT-116 colon) of over 100 µM, a TGI (T-47D breast) of over 100 µM and a TGI (HL-60(TB) leukemia) of over 100 µM. For the same compound, the TGI (TK-10 renal) was over 100 µM, the TGI (CAKI-1 renal) was over 100 µM and the TGI (MDA-MB-435) was over 100 µM. For the same compound, the TGI (M14 melanoma) was over 100 µM, the TGI (HT29 colon) was over 100 µM and the TGI (KM12 colon) was over 100 µM. For the same compound, the TGI (MDA-N) was over 100 µM, the TGI (HS 578T breast) was over 100 µM and the TGI (OVCAR-4 ovarian) was over 100 µM. The TGI (RPMI-8226 leukemia) was over 100 µM, the TGI (PC-3 prostate) was over 100 µM and the TGI (IGROV1 ovarian) was over 100 µM. It also gave a TGI (HCC-2998 colon) of over 100 µM, a TGI (SK-OV-3 ovarian) of over 100 µM and a TGI (LOX IMVI melanoma) of over 100 µM. The TGI (NCI-H522 lung) was over 100 µM, the TGI (MDA-MB-231 breast) was over 100 µM and the TGI (K-562 leukemia) was over 100 µM. It also gave a TGI (RXF 393 renal) of over 100 µM, a TGI (SN12C renal) of over 100 µM and a TGI (ACHN renal) of over 100 µM. It also gave a TGI (NCI-H460 lung) of over 100 µM, a TGI (MOLT-4 leukemia) of over 100 µM and a TGI (SK-MEL-2 melanoma) of over 100 µM. It also gave a TGI (OVCAR-3 ovarian) of over 100 µM, a TGI (SW-620 colon) of over 100 µM and a TGI (UACC-257 melanoma) of over 100 µM. For the same compound, the TGI (UO-31 renal) was over 100 µM, the TGI (DU-145 prostate) was over 100 µM and the TGI (SR leukemia) was over 100 µM. The TGI (SNB-75 CNS) was over 100 µM, the TGI (UACC-62 melanoma) was over 100 µM and the TGI (A498 renal) was over 100 µM. The TGI (OVCAR-8 ovarian) was over 100 µM, the TGI (EKVX NSCLC) was over 100 µM and the TGI (SF-268 CNS) was over 100 µM. It also gave a TGI (MCF7 breast) of over 100 µM and a TGI (HCT-15 colon) of over 100 µM.
For `CSC1=NN(c2ccccc2)C(=O)C1=C(SC)SC`, the TGI (A549 NSCLC) was 64.6 µM, the TGI (NCI/ADR-RES ovarian) was 49.2 µM and the TGI (U251 CNS) was 87.6 µM. It also gave a TGI (NCI-H226 lung) of 39.9 µM, a TGI (SK-MEL-5 melanoma) of 29.8 µM and a TGI (BT-549 breast) of over 100 µM. The TGI (CCRF-CEM leukemia) was over 100 µM, the TGI (NCI-H23 lung) was 55.7 µM and the TGI (COLO 205 colon) was 26 µM. The TGI (SF-539 CNS) was 70.3 µM, the TGI (OVCAR-5 ovarian) was over 100 µM and the TGI (SNB-19 CNS) was 82 µM. It also gave a TGI (786-0 renal) of over 100 µM, a TGI (SK-MEL-28 melanoma) of over 100 µM and a TGI (HCT-116 colon) of 53.8 µM. For the same compound, the TGI (T-47D breast) was 70.3 µM, the TGI (HL-60(TB) leukemia) was 51.8 µM and the TGI (TK-10 renal) was 74.6 µM. For the same compound, the TGI (CAKI-1 renal) was 43.9 µM, the TGI (MDA-MB-435) was over 100 µM and the TGI (M14 melanoma) was over 100 µM. The TGI (HT29 colon) was 43.5 µM, the TGI (KM12 colon) was over 100 µM and the TGI (MDA-N) was over 100 µM. For the same compound, the TGI (HS 578T breast) was over 100 µM, the TGI (OVCAR-4 ovarian) was over 100 µM and the TGI (RPMI-8226 leukemia) was 47 µM. It also gave a TGI (PC-3 prostate) of 47 µM, a TGI (HCC-2998 colon) of 91.7 µM and a TGI (SK-OV-3 ovarian) of over 100 µM. For the same compound, the TGI (LOX IMVI melanoma) was 66.1 µM, the TGI (NCI-H522 lung) was 25.5 µM and the TGI (MDA-MB-231 breast) was 53 µM. The TGI (K-562 leukemia) was 45.9 µM, the TGI (RXF 393 renal) was 62.7 µM and the TGI (SN12C renal) was 97.8 µM. The TGI (NCI-H460 lung) was 41.4 µM, the TGI (MOLT-4 leukemia) was over 100 µM and the TGI (SK-MEL-2 melanoma) was 73.4 µM. For the same compound, the TGI (OVCAR-3 ovarian) was over 100 µM, the TGI (SW-620 colon) was over 100 µM and the TGI (UACC-257 melanoma) was 46.7 µM. For the same compound, the TGI (MALME-3M melanoma) was 39.6 µM, the TGI (UO-31 renal) was 37 µM and the TGI (DU-145 prostate) was over 100 µM. For the same compound, the TGI (SR leukemia) was 83.7 µM, the TGI (SNB-75 CNS) was 94.3 µM and the TGI (UACC-62 melanoma) was 66.7 µM. For the same compound, the TGI (A498 renal) was 35.4 µM, the TGI (OVCAR-8 ovarian) was 65.9 µM and the TGI (EKVX NSCLC) was over 100 µM. For the same compound, the TGI (SF-268 CNS) was over 100 µM, the TGI (MCF7 breast) was 49.6 µM and the TGI (HCT-15 colon) was 76 µM.
